How the values were obtained:
Carbonic anhydrase 1 = Carbonic anhydrase 1 (Homo sapiens, UniProt P00915); test: Inhibition of human carbonic anhydrase 1 after 15 mins by stopped flow CO2 hydration assay
Carbonic anhydrase 2 = Carbonic anhydrase 2 (Homo sapiens, UniProt P00918); test: Inhibition of human carbonic anhydrase 2 after 15 mins by stopped flow CO2 hydration assay

Chain of Carbonic anhydrase 1 (P00915 whole entry): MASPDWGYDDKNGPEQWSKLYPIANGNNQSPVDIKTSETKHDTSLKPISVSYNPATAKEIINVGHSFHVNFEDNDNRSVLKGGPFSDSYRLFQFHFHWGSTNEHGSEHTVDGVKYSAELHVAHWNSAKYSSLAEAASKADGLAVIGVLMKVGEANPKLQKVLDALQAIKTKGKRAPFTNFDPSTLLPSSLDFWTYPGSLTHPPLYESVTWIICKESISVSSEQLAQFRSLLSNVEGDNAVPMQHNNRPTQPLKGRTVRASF

O=S(=O)(O)ONOS(=O)(=O)O [SODIUM IMINODISULFATE]
Ki (Carbonic anhydrase 1): 310 nM
Ki (Carbonic anhydrase 2): 760 nM
